Calls of active or inactive are those of the source.
Columns and labels:
Estrogen receptor beta = Estrogen receptor beta (Homo sapiens, UniProt Q92731); test: ERβ–SRC-3 coactivator interaction inhibitors, confirmation, orthogonal assay, biochemical, ELISA, streptavidin-HRP readout (AID 1060)
Bcl-2-like protein 10 = Bcl-2-like protein 10 (Homo sapiens, UniProt Q9HD36); test: displacers of TR3 peptide from Bcl-B, primary screen, selectivity assay for Bfl-1 inhibitor project, biochemical, fluorescence polarization, FITC-TR3 peptide (AID 748);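 further: fluorescence polarization from a fluorescein-labelled TR3 peptide binding purified Bcl-B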
Bcl-2-like protein 10, sequence (Q9HD36 whole entry): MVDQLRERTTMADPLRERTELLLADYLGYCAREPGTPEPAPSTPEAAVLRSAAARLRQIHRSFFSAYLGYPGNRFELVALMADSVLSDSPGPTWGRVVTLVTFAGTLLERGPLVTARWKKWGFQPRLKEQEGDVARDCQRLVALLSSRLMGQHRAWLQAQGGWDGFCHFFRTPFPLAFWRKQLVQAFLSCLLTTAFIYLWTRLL

Protein Rev = Protein Rev (Human immunodeficiency virus type 1 group M subtype B (isolate HXB2)(HIV-1), UniProt P04618); test: inhibitors of Rev binding to RRE RNA, dose response, biochemical, fluorescence polarization, HIV-1 (AID 434976); design: species or system Human immunodeficiency virus 1
Protein Rev, sequence (P04618 whole entry, the tested form may be a part): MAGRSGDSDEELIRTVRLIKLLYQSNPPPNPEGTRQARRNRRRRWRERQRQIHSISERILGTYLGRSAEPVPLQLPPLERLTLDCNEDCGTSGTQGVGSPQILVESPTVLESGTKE

[1] = biological target: T1, RNA-binding protein pos-1 (Caenorhabditis elegans, UniProt G5EF15); test: inhibitors of POS-1/mex-3 RNA binding, dose response, biochemical, fluorescence polarization (AID 1964);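 further: purified POS-1 fused to maltose binding protein made in E. coli; potency of compounds blocking POS-1 binding to fluorescent RNA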
T1 sequence (G5EF15 whole entry): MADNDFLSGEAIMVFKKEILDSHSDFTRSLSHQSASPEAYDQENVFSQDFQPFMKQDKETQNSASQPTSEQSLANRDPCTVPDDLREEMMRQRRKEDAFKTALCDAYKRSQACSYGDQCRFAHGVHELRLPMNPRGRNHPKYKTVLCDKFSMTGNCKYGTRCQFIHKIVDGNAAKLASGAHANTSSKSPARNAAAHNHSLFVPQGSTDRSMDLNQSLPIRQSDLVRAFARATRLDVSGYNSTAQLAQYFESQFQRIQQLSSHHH

[2] = biological target: Female germline-specific tumor suppressor gld-1 (Caenorhabditis elegans, UniProt Q17339); test: inhibitors of GLD-1 binding to TGE RNA, dose response, biochemical, fluorescence polarization, C. elegans (AID 2802);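 further: fluorescence polarization of labeled TGE RNA bound by purified gld-1 protein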
Female germline-specific tumor suppressor gld-1, sequence (Q17339 whole entry): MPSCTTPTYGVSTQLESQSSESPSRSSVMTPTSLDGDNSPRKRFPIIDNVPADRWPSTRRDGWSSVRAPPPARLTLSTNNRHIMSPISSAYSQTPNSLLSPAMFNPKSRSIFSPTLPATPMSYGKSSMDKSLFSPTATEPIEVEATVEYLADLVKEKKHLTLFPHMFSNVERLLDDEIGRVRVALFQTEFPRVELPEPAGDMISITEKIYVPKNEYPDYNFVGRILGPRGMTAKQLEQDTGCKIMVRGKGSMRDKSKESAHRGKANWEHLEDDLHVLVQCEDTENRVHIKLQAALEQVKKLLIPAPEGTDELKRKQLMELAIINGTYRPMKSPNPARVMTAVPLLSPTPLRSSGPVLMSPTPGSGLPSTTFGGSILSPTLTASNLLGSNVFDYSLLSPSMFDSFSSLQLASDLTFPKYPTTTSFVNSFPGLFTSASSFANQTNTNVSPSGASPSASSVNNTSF

[3] = biological target: T2, Zinc finger protein mex-5 (Caenorhabditis elegans, UniProt Q9XUB2); test: MEX-5/TCR-2 RNA interaction inhibitors, dose response, biochemical, C. elegans, fluorescence polarization (AID 1960)
T2 sequence (Q9XUB2 whole entry): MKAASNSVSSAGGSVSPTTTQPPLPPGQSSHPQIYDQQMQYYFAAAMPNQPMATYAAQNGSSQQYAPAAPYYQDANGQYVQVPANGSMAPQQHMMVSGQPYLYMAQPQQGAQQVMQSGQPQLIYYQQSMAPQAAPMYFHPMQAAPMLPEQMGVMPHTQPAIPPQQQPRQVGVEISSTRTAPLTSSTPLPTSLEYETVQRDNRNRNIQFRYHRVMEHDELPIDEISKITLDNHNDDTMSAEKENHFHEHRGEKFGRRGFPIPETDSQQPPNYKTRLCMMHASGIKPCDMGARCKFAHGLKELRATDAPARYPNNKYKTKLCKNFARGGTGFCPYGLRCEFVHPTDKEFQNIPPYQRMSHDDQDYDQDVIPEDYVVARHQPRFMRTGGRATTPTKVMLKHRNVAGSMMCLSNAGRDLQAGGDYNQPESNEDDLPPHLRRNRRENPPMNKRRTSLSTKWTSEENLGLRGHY

[4] = biological target: T3, Kappa-type opioid receptor (Homo sapiens, UniProt P41145); assay type: functional
T3 sequence (P41145 whole entry): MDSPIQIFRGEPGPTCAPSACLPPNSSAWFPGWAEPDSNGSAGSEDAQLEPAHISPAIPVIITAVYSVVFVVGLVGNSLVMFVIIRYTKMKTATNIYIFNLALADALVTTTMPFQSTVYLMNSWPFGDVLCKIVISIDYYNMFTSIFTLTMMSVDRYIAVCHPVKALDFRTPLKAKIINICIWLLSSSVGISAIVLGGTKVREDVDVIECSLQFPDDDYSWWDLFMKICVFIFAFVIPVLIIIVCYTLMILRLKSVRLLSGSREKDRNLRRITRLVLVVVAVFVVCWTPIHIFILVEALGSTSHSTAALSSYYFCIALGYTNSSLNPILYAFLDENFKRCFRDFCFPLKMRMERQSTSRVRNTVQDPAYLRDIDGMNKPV

[5] = biological target: T3, Kappa-type opioid receptor; assay type: functional; remark: listed apart in the source
Beta-galactosidase = Beta-galactosidase (Escherichia coli, UniProt Q8VNN2); assay type: functional
Beta-galactosidase, sequence (Q8VNN2 whole entry): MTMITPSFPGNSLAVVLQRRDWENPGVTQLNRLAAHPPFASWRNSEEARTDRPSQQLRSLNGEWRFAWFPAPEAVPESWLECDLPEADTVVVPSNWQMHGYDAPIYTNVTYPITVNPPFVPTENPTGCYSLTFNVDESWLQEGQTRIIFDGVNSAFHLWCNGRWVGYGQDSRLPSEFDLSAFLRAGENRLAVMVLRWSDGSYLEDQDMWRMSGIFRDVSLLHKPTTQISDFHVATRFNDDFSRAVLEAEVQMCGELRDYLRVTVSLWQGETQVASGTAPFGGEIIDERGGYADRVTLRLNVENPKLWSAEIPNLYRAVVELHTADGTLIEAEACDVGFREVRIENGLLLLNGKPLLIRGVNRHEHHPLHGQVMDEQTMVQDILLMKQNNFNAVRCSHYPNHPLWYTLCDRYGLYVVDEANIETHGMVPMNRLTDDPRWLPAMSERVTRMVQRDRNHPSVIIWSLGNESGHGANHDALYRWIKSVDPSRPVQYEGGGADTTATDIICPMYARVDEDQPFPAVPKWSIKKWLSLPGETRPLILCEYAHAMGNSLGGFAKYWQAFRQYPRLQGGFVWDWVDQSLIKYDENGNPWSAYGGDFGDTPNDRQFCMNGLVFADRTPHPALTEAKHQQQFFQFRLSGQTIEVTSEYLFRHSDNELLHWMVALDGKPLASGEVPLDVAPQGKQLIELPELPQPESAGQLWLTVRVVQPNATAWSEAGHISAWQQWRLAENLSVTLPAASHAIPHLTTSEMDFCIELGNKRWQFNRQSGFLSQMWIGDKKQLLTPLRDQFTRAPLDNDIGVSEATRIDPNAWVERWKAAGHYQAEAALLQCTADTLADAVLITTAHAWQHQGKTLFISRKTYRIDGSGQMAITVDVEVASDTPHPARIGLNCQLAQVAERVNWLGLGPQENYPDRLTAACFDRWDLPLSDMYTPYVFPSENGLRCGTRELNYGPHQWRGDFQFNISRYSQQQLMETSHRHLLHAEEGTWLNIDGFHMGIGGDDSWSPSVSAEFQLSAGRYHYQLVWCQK

Protein S100-A4 = Protein S100-A4 (Homo sapiens, UniProt P26447); test: S100A4-myosin IIA binding inhibitor potency, dose response, biochemical, fluorescence polarization, cherry-picked hits (AID 687001); assay type: functional
Protein S100-A4, sequence (P26447 whole entry): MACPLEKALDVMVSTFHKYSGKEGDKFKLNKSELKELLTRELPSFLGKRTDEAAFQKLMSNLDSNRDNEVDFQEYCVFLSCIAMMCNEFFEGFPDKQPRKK

Paired box protein Pax-8 = Paired box protein Pax-8 (Homo sapiens, UniProt Q06710); test: inhibitors of PAX8-driven TPO luciferase reporter, dose response, RMG-I cells, cherry-pick (AID 687027); assay type: functional, cell-based;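 further: luciferase reporter driven by Pax8 target thyroperoxidase promoter measured by SteadyGlo luminescence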
Paired box protein Pax-8, sequence (Q06710 whole entry): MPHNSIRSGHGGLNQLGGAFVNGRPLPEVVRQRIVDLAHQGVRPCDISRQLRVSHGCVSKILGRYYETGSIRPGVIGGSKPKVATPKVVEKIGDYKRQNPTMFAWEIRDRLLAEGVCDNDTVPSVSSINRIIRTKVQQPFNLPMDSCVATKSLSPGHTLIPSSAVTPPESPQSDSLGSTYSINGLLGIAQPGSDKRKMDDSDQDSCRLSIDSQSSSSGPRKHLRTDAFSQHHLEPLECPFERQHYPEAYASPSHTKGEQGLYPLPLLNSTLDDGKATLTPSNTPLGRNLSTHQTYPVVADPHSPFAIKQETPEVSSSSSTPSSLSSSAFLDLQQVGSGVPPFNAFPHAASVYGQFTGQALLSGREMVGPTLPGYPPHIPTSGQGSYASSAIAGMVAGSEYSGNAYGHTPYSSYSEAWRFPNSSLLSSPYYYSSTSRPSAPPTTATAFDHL

[6] = HeLa cell cytotoxicity, dose response, cytotoxicity control for MgcRacGAP inhibitor project (AID 624300); assay type: functional
Nonstructural protein 1 = Nonstructural protein 1 (Influenza A virus, UniProt Q194T2); assay type: functional, Influenza A virus (A/California/07/2009(H1N1))
Nonstructural protein 1, sequence (Q194T2 whole entry): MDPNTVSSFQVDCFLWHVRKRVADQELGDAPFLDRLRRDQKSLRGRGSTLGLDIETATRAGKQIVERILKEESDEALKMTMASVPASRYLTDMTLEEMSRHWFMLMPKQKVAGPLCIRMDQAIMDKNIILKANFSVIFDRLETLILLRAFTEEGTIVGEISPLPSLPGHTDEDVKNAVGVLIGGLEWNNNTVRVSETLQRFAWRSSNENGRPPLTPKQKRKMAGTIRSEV

ORF 73 = ORF 73 (Human herpesvirus 8, UniProt O40947); test: inhibitors of C-LANA binding to LBS DNA, dose response, biochemical, fluorescence polarization, cherry-picked samples (AID 504725); design: species or system Human gammaherpesvirus 8;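 further: fluorescence polarization of a labeled DNA duplex reporting LANA DNA binding; potency is for inhibitors that block LANA binding to the DNA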
ORF 73, sequence (O40947 whole entry): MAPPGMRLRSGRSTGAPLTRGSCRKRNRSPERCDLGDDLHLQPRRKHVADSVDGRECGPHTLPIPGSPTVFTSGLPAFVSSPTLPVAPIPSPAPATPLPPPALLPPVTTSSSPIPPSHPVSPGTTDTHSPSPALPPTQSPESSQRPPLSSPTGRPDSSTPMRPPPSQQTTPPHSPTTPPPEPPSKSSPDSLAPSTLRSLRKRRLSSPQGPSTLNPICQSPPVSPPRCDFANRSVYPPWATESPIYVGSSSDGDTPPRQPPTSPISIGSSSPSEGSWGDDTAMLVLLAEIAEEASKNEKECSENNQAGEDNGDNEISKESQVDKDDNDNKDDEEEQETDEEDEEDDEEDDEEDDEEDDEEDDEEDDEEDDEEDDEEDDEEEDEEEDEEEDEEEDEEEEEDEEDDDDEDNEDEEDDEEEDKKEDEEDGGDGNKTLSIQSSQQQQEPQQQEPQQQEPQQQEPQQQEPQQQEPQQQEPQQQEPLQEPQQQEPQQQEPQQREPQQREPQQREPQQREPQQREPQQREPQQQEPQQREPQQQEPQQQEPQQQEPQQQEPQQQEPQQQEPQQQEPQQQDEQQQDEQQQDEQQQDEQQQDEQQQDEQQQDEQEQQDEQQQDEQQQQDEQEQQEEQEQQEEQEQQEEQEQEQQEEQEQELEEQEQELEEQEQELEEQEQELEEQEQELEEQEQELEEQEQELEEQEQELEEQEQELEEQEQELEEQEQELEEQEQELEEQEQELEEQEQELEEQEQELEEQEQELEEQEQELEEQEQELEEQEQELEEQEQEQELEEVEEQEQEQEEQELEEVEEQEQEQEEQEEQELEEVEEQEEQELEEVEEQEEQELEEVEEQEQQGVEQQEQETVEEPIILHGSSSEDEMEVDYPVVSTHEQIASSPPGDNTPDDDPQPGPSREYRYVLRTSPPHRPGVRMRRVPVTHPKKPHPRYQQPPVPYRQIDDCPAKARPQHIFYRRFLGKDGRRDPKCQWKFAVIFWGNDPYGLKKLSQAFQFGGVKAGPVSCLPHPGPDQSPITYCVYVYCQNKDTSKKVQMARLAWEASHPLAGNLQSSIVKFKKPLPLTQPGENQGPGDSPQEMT

HeLa = test: HeLa cell cytotoxicity, dose response, cytotoxicity control, 24 h, cherry-picked samples (AID 504726); assay type: functional, cell-based; settings: Homo sapiens;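 further: potency for cytotoxicity as loss of luminescence signal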
[7] = biological target: T4, Rac GTPase-activating protein 1 (Homo sapiens, UniProt Q9H0H5); test: MgcRacGAP GTPase-activating activity inhibitors, confirmation, biochemical, ADP Hunter fluorescence, primary and confirmatory (AID 624330); assay type: functional
T4 sequence (Q9H0H5 whole entry): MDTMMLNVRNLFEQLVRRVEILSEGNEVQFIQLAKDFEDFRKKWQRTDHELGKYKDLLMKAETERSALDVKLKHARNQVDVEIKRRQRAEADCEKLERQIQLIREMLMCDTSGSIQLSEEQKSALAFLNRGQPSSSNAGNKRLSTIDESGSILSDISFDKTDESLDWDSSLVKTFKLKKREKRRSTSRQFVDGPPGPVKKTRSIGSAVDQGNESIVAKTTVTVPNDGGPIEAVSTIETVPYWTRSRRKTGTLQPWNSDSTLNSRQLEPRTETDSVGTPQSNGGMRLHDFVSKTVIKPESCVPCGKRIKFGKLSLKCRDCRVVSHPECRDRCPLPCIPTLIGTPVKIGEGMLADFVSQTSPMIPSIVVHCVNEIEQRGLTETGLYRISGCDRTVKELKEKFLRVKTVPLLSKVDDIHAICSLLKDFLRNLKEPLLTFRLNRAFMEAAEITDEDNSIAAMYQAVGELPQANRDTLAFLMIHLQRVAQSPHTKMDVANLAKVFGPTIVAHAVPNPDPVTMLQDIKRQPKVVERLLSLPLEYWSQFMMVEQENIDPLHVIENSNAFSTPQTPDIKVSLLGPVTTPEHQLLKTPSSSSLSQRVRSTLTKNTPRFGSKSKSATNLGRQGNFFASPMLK

Estrogen receptor beta, sequence (Q92731 whole entry): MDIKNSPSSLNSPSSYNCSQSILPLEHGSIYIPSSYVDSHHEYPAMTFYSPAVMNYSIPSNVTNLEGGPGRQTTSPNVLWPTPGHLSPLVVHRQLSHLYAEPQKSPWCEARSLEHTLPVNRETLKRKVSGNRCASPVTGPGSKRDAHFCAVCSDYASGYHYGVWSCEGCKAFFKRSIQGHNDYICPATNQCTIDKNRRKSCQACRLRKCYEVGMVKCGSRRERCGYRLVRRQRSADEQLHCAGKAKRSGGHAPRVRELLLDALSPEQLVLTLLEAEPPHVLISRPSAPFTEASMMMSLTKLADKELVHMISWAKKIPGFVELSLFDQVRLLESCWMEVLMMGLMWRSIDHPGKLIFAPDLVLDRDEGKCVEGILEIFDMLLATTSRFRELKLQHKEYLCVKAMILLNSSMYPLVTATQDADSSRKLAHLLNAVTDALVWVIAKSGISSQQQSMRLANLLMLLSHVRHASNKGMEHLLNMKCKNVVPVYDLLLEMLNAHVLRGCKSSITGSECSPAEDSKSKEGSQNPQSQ

## Cc1cc(C)n2nc(C(=O)OCC(=O)c3cc(C)n(C)c3C)nc2n1
Estrogen receptor beta
  IC50: > 50 µM (not active)
Bcl-2-like protein 10
  IC50: 24.4 µM (active)

## CCCn1c(N)c(N(CCOC)C(=O)Cc2ccc(S(=O)(=O)N3CCOCC3)s2)c(=O)[nH]c1=O
Protein Rev
  IC50: 39.6 µM (not active)
[1]
  EC50: > 300 µM (not active)
[2]
  IC50: 16.2 µM (inactive)
[3]
  EC50: > 300 µM (not active)

## C=CC/N=c1\scc(-c2ccc3c(c2)NC(=O)CO3)n1/N=C(\C)c1ccccn1
[4]
  IC50: > 32 µM
[5]
  IC50: 10.1 µM (active)
Beta-galactosidase
  EC50: > 31.5 µM (inactive)

## COc1cccc2c1C(=O)c1c(O)c3c(c(O)c1C2=O)CC(O)(C(C)=NNC(=O)c1ccc(Cl)c(Cl)c1)CC3OC1CC(N)C(O)C(C)O1 (stereo unspecified)
Protein S100-A4
  AC50: 0.562 µM (active)
Paired box protein Pax-8
  AC50: 4.72 µM (active)
[6]
  CC50: 9.6 µM (active)
Nonstructural protein 1
  IC50: 3.67 µM (active)
ORF 73
  AC50: 13.2 µM (active)
HeLa
  AC50: 3.38 µM (active)
[7]
  IC50: 54.9 µM (active)
